Our source for the IC50 values is patent publication US11542259B2, “Compounds for the treatment of kinase-dependent disorders” (Exelixis, Inc., priority 2018, dated 2023).

The structures appear in SMILES notation. Where only a bound is given, the exact number is not on record here.

For experiment [1], the target named is Human Axl (residues H473-A894 with Q764R) (Homo sapiens (Human), UniProt P30530, Q764R). In words: Human AXL kinase assay (33P radiometric, KinaseProfiler). Format: biochemical. To be noted: 10 μM ATP.
Sequence of Human Axl (residues H473-A894 with Q764R) (P30530 473-894 Q764R): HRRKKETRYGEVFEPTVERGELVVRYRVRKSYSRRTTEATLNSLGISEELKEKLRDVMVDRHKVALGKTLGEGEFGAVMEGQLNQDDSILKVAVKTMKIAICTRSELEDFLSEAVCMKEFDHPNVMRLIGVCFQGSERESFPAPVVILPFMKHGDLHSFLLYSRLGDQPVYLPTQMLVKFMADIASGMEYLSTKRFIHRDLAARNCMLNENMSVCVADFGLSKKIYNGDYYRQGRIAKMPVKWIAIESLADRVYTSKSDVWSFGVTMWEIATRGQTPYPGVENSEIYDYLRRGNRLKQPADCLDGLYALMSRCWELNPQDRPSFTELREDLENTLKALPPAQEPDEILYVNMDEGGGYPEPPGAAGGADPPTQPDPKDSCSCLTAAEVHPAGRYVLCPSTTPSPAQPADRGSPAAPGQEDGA
Experiment [2] deals with Human Mer (residues R557-E882 with H628Q and R794A) (Homo sapiens (Human), UniProt Q12866). In words: Human Mer kinase assay (33P radiometric, KinaseProfiler). In kind it is biochemical. To be noted: 10 μM ATP.
Sequence of Human Mer (residues R557-E882 with H628Q and R794A) (Q12866 557-882, stated change not applied): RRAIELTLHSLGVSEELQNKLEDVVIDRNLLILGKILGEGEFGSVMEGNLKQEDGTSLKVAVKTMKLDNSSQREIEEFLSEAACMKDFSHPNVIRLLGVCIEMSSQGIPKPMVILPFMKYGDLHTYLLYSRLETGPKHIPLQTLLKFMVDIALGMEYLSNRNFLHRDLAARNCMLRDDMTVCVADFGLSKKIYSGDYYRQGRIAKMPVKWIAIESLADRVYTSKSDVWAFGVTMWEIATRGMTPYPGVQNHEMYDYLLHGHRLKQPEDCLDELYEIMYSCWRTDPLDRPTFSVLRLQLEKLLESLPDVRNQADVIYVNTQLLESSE
In the next experiment the target is AXL (Homo sapiens (Human), UniProt P30530). In words: AXL autophosphorylation ELISA in A-172 cells. In kind it is cell-based. To be noted: cellular, Gas6 stimulated. The gist of the method:
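Serum-starved (24 h) A-172 glioblastoma cells pretreated 1 h with compounds (8-point curve, 0.3% DMSO), then stimulated 15 min with 1 μg/mL Gas6. Lysate phospho-AXL measured by sandwich ELISA against a phospho-AXL standard; IC50 from 4-parameter logistic fit between DMSO and reference-inhibitor controls.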
In general terms: ELISA stands for enzyme-linked immunosorbent assay.

For a further experiment, the target named is Met (Homo sapiens (Human), UniProt P08581). Nature of the experiment: Met autophosphorylation ELISA in PC-3 cells. To be noted: cellular, HGF stimulated, read-out: c-Met IC50. In kind it is cell-based. In outline:
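PC-3 cells serum-starved 3 h, treated 1 h with 8-point compound series (0.3% DMSO), then stimulated with 100 ng/mL human HGF for 10 min. Lysate phospho-Met (panTyr) measured by sandwich ELISA; IC50 from 4-parameter logistic fit against DMSO and reference-inhibitor controls.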

For orientation: IC50 means the midpoint of a concentration-inhibition curve.

Sequence of AXL (P30530 26-894): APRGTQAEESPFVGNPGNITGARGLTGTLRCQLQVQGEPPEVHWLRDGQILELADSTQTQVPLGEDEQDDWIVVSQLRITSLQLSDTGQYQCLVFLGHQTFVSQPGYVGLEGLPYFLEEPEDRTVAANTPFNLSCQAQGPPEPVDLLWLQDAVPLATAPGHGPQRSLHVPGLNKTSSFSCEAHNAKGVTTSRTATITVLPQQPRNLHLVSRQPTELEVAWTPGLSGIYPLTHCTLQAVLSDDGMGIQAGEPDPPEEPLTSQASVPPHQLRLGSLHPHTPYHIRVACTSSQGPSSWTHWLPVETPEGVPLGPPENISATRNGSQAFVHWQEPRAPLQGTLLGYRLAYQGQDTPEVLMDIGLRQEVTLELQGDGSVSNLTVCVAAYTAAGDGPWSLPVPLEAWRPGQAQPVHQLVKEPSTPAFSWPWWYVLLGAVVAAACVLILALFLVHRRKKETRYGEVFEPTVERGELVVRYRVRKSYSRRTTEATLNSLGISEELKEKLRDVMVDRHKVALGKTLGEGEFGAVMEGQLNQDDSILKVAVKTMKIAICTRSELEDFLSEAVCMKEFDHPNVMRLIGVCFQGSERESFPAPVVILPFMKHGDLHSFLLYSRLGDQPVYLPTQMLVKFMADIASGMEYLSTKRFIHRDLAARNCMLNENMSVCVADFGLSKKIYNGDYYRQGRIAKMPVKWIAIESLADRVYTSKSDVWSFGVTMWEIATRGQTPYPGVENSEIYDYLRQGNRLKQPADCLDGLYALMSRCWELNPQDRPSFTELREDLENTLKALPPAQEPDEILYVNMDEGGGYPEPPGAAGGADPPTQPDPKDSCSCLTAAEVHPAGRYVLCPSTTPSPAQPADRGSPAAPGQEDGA
Sequence of Met (P08581 25-1390): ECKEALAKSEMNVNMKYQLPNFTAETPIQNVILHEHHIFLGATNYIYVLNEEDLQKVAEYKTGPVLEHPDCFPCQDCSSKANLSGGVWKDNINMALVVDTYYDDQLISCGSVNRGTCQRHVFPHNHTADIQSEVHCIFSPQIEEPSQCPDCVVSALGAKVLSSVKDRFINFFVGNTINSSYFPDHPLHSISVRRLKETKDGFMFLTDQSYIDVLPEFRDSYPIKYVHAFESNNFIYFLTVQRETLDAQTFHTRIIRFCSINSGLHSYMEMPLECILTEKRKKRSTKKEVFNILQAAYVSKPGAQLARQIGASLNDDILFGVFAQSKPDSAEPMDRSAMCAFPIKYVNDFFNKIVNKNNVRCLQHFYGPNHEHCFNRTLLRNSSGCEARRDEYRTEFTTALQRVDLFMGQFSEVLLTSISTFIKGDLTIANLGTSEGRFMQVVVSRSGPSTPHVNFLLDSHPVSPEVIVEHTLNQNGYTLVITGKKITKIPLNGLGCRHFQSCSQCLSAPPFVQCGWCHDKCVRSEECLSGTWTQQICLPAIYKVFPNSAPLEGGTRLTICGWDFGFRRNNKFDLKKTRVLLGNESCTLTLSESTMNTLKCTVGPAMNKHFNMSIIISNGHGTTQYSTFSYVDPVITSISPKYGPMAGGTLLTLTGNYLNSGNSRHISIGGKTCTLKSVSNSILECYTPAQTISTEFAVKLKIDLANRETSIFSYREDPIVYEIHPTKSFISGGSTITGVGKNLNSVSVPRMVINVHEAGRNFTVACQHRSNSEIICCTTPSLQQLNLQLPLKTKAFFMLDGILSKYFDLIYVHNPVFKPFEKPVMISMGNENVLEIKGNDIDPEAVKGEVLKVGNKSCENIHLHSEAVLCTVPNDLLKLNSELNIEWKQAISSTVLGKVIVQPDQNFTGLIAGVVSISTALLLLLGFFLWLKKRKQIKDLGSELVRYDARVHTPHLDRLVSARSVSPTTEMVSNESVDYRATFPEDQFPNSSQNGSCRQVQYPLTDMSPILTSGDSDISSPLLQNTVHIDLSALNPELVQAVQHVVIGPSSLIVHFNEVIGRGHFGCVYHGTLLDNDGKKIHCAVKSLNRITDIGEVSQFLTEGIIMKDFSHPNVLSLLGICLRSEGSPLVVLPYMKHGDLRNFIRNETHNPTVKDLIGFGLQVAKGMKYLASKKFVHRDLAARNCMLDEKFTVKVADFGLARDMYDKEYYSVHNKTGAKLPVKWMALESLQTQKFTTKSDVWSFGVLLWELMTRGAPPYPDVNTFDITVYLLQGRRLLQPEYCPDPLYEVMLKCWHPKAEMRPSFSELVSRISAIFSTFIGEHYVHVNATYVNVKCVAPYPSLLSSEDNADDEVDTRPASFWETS

Turning to `COc1cc2nccc(Oc3ccc(NC(=O)C4(C(=O)Nc5ccc(F)cc5)CC4)cc3)c2cc1-c1c(C)noc1C` [Compound 184, 1-N-[4-[6-(3,5-dimethyl-1,2-oxazol-4-yl)-7-methoxyquinolin-4-yl]oxyphenyl]-1-N′-(4-fluorophenyl)cyclopropane-1,1-dicarboxamide], the IC50 in experiment [1] is 10 to 100 nM; in experiment [2], at most 10 nM; against AXL it was 100 to 300 nM; on Met, 10 to 100 nM.

Turning to `COC(=O)c1cc2nccc(Oc3ccc(NC(=O)C4(C(=O)Nc5ccc(F)cc5)CC4)cc3)c2cc1C` [Compound 140, methyl 4-[4-[[1-[(4-fluorophenyl)carbamoyl]cyclopropanecarbonyl]amino]phenoxy]-6-methylquinoline-7-carboxylate], the IC50 in experiment [1] is 10 to 100 nM; in experiment [2], at most 10 nM; against AXL, 10 to 100 nM; on Met it was 10 to 100 nM.

Regarding `COc1cc2nccc(Oc3ccc(NC(=O)C4(C(=O)Nc5ccc(F)cc5)CC4)cc3)c2cc1-c1cnoc1` [Compound 183, 1-N′-(4-fluorophenyl)-1-N-[4-[7-methoxy-6-(1,2-oxazol-4-yl)quinolin-4-yl]oxyphenyl]cyclopropane-1,1-dicarboxamide], the half-inhibitory concentration (IC50) in experiment [1] was 10 to 100 nM; in experiment [2] it was at most 10 nM; against AXL it was 10 to 100 nM; at Met, 10 to 100 nM.

Consider `COc1cc2nccc(Oc3ccc(NC(=O)C4(C(=O)Nc5ccc(F)cc5)CC4)cc3)c2cc1-c1ccn[nH]1` [Compound 185, 1-N′-(4-fluorophenyl)-1-N-[4-[7-methoxy-6-(1H-pyrazol-5-yl)quinolin-4-yl]oxyphenyl]cyclopropane-1,1-dicarboxamide], for which the IC50 in experiment [1] is 10 to 100 nM; in experiment [2], at most 10 nM; on AXL it was 10 to 100 nM; on Met it was 10 to 100 nM.

`CNC(=O)c1cc2c(Oc3ccc(NC(=O)C4(C(=O)Nc5ccc(F)cc5)CC4)cc3Cl)ccnc2cc1OC` [Compound 134, 1-N′-[3-chloro-4-[7-methoxy-6-(methylcarbamoyl)quinolin-4-yl]oxyphenyl]-1-N-(4-fluorophenyl)cyclopropane-1,1-dicarboxamide]: the IC50 (in experiment [1]; in experiment [2]; at AXL; at Met) was at most 10 nM throughout.

On to `COc1cc2nccc(Oc3ccc(NC(=O)C4(C(=O)Nc5ccc(F)cc5)CC4)cc3)c2cc1C1(O)COC1` [Compound 196, 1-N′-(4-fluorophenyl)-1-N-[4-[6-(3-hydroxyoxetan-3-yl)-7-methoxyquinolin-4-yl]oxyphenyl]cyclopropane-1,1-dicarboxamide], for which the IC50 in experiment [1] is at most 10 nM; in experiment [2] it was at most 10 nM; against AXL, 10 to 100 nM; on Met, 10 to 100 nM.

As for `COc1cc2nccc(Oc3ccc(NC(=O)C4(C(=O)Nc5ccc(F)cc5)CC4)cc3)c2cc1C(=O)N1CCC1` [Compound 15, 1-N-[4-[6-(azetidine-1-carbonyl)-7-methoxyquinolin-4-yl]oxyphenyl]-1-N′-(4-fluorophenyl)cyclopropane-1,1-dicarboxamide], the IC50 is 10 to 100 nM in experiment [1], at most 10 nM in experiment [2], 10 to 100 nM against AXL and 100 to 300 nM at Met.

With `COc1cc2nccc(Oc3ccc(NC(=O)C4(C(=O)Nc5ccc(F)cc5)CC4)cc3)c2cc1-c1ccc[nH]1` [Compound 188, 1-N′-(4-fluorophenyl)-1-N-[4-[7-methoxy-6-(1H-pyrrol-2-yl)quinolin-4-yl]oxyphenyl]cyclopropane-1,1-dicarboxamide], the IC50 is 10 to 100 nM in experiment [1], at most 10 nM in experiment [2], at most 10 nM on AXL and 10 to 100 nM on Met.
